Assays:
VEGFR kinases = conditions: not dependent on a specific ligand; cited from earlier work
[1] = Hazard classification, internal workspace limit; conditions: classified as being hazardous

SMILES | inhibition of VEGFR kinases (VEGFR kinases) | internal workspace limit [1] [mg/m^3]
Clc1ccc(Nc2nnc(Cc3ccncc3)c3ccccc23)cc1 [(4-chlorophenyl)[4-(4-pyridylmethyl)-phthalazin-1-yl]] | inhibitor of all three VEGFR kinases | 
Clc1ccc(Nc2nnc(Cc3ccncc3)c3ccccc23)cc1 [pynasunate, (4-chlorophenyl)[4-(4-pyridylmethyl)-phthalazin-1-yl]ammonium hydrogen succinate] |  | 0.1

Source: patent US20070059359A1, “Immediate-release and high-drug-load pharmaceutical formulations of non-micronised (4-chlorophenyl)[4-(4-pyridylmethyl)phthalazin-1-yl] and salts thereof” (priority 2005, published 2007)
